# From article PMC3839116 (Bioorganic & medicinal chemistry, 2012)
# Assays:
# spASADH = target: T1, spASADH (Streptococcus pneumoniae, UniProt Q8DQ00); assay: ASADH enzyme kinetic assay; details: for fold increase in binding affinity: relative to M11, M9: enzyme form not stated, M14: spASADH; for ligand efficiency: enzyme form not stated
# T1 sequence (Q8DQ00 1-358): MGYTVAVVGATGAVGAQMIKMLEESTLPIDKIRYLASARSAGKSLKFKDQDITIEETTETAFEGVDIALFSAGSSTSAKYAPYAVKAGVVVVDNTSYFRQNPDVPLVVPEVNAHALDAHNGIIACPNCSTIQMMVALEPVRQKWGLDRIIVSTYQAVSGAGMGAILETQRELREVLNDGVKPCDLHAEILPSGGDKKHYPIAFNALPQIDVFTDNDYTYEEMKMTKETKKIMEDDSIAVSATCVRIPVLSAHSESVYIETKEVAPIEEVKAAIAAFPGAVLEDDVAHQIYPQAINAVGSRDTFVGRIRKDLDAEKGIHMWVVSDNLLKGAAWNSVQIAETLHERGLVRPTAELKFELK
# vcASADH [1] = target: T2, vcASADH (Vibrio cholerae serotype O1, UniProt Q9KQG2); assay: ASADH enzyme kinetic assay
# T2 sequence (Q9KQG2 1-370): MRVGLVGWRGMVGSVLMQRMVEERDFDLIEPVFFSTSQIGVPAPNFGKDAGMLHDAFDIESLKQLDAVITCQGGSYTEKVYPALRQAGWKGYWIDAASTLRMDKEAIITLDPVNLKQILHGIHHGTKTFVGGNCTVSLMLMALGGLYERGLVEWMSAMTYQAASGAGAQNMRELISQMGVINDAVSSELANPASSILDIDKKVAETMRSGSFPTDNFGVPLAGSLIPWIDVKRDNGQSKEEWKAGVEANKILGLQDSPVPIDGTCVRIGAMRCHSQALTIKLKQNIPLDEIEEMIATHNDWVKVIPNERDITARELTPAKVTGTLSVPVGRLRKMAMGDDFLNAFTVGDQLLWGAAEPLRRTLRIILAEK
# vcASADH [2] = target: T2, vcASADH; assay: More thorough kinetic analysis, inhibitor varied against substrate ASA; assay type: biochemical; details: against the substrate ASA
structure (smiles),measurement,setting,value
"O=c1[nH]c2ccc([N+](=O)[O-])cc2[nH]1 [Compound M14, 5-nitro-2-benzimidazolinone]",fold increase in binding affinity,spASADH,~10 fold
"COC(=O)c1cc(C(=O)Nc2ccc([N+](=O)[O-])cc2)cc(C(=O)OC)c1 [Compound M17m, 5-[[(4-Nitrophenyl)amino]carbonyl]-1,3-benzenedimethylcarboxylate]",Ki,vcASADH [1],> 20 mM
"Cn1c(=O)n(C)c2cc([N+](=O)[O-])ccc21 [Compound M14m, 4-Nitro-N,N-dimethylbenzimidazolinone]",inhibition type,vcASADH [2],competitive inhibitors
same,Ki,vcASADH [1],0.13 ± 0.02 mM
O=C(O)c1cc(C(=O)O)cc(C(=O)Nc2ccc([N+](=O)[O-])cc2)c1 [Compound M17],ligand efficiency,spASADH,0.22 kcal/mol/heavy atom
O=C1NC(=O)c2cc([N+](=O)[O-])c(Cl)cc21 [Compound M9],inhibition type,vcASADH [2],competitive inhibitors
same,ligand efficiency,spASADH,0.35 kcal/mol/heavy atom
same,fold increase in binding affinity,spASADH,~10 fold
"CCN1C(=O)c2ccc([N+](=O)[O-])cc2C1=O [Compound M11e, 4-Nitro-N-ethylphthalimide]",Ki,vcASADH [1],> 4 mM
same,affinity for vcASADH (in words),vcASADH [1],no affinity
same,affinity for spASADH (in words),spASADH,no affinity
"COC(=O)c1ccc([N+](=O)[O-])cn1 [Compound M6m, 5-Nitropyridine-2-methylcarboxylate]",Ki,vcASADH [1],> 20 mM
"COC(=O)c1ccc(C(=O)OC)nc1 [Compound M7m, Pyridine-2,5-dimethylcarboxylate]",Ki,vcASADH [1],> 20 mM
"O=C(O)c1ccc(C(=O)O)cc1 [1,4-benzenedicarboxylate, reference compound]",affinity for vcASADH (in words),vcASADH [1],no affinity
same,affinity for spASADH (in words),spASADH,no affinity
